These results are taken from patent EP0363671A2, “Use of ACE inhibitors against the formation of neo-intima after vascular infliction” (F. HOFFMANN-LA ROCHE AG, priority 1988, dated 1990).

The test system of assay [1] is Neointima in der ballonisierten Arteria carotis. The assay can be described thus: Neointima formation after balloon catheter injury (ballooning) of the carotid artery, morphometry of cross-sections 14 days later. The assay is classed as in vivo, Ratten, Stamm: RORO. An excerpt:
Eine Arterie wird mit Hilfe eines Ballonkatheters, der durch das Gefässlumen geschoben wird, von innen verletzt (Ballonisierung). Dabei wird die innerste Zellschicht, das Endothel, entfernt und die Muskelzellen der Media leicht geschädigt. Die Muskelzellen werden dadurch zur Proliferation und Migration in die Intima angeregt. […] Das Ausmass der Neointimabildung wird anschliessend an Querschnitten durch die Arterie mit Hilfe morphometrischer Methoden ausgemessen.
Die Tiere wurden randomisiert in eine Kontrollgruppe und in eine Behandlungsgruppe eingeteilt. Es wurden je 11 Tiere als Kontroll- bzw. behandelte Tiere eingesetzt.
Die Tiere der Behandlungsgruppe erhielten 20 Tage lang soviel Cilazapril dem Futter beigemischt, dass die tägliche Cilazaprilaufnahme durchschnittlich 10 mg/kg betrug. […] Die Kontrolltiere erhielten das gleiche Laborfutter ohne Zusatz. Die Ballonisierung der Arteria carotis communis wurde 6 Tage nach der ersten Gabe von Cilazapril durchgeführt. Die Tiere wurden mit Aetherinhalation und subcutaner Verabreichung von 200 mg/kg Hexobarbital-Na narkotisiert. Die distale linke Arteria carotis communis und das Bifurkationsgebiet von Carotis externa und interna wurden freigelegt. Der FOGARTY-Katheter (12-060-2F, Edwards Laboratories, Santa Anna, CA, USA) wurde durch die Arteria carotis externa in die Arteria carotis communis bis zum Aortenbogen eingeführt, der Ballon mit Wasser gefüllt (Füllungsvolumen ca. 0,01-0,015 ml) und gegen einen leichten Widerstand zurückgezogen. Dieses Procedere wurde zweimal wiederholt. Die Arteria carotis externa wurde ligiert und die Wunde vernäht. Die Operateure hatten keine Kenntnis, ob es sich um behandelte oder unbehandelte Tiere handelte.
14 Tage nach der Ballonisierung wurden die Ratten mit Aether anaesthesiert und die Carotiden durch Perfusion mit Fixationsmittel (2,5% Glutaraldehyd in 0,1 M Phosphatpuffer, pH 7,4), fixiert. Hierzu wurde eine Sonde durch den linken Herzventrikel in die aufsteigende Aorta geführt (Einfluss) und eine zweite Sonde durch den rechten Ventrikel in den Vorhof geschoben (Abfluss). Das Gefässsystem wurde zunächst mit 10 ml PBS ("phosphate buffered saline"; gepufferte isotonische NaCI-Lösung) gespült und dann 15 min lang mit Fixationsmittel bei einem Druck von 90 mm Quecksilbersäule fixiert. Anschliessend wurden sowohl die linke (ballonisierte) als auch die rechte (nicht-ballonisierte) Arteria carotis (Kontrolle) herauspräpariert, von Gewebe befreit und zur weiteren Fixation in 2,5% Glutaraldehyd in 0,1 M Cacodylat-Puffer eingelegt. […] Das mittlere Segment wurde für die morphologischen Untersuchungen verwendet.
Semidünne Querschnitte (1 µm dick) wurden mit Toluidinblau und basischem Fuchsin gefärbt.
Aus diesen Messungen wurden folgende Parameter berechnet: • (6) Die mittlere Dicke der Neointima in um, berechnet als Kreisring aus der Querschnittsfläche der Neointima. Hierzu wurde der Neointimaquerschnitt in einen Kreisring transformiert, dessen äussere Begrenzung die Lamina elastica interna bildete. • (7) Die Querschnittsfläche der Neointima zur Querschnittsfläche der Media in Prozent (normalisierte Neointimafläche) • (8) Der Prozentsatz der mit Neointima bedeckten Lamina elastica interna.

The nature of assay [2]: Lowering of systolic blood pressure by the dose mixed into the feed. The class given is in vivo, Ratten, Stamm: RORO. The conditions noted are these: average daily intake 10 mg/kg mixed into feed. As for the experimental part:
Die Tiere der Behandlungsgruppe erhielten 20 Tage lang soviel Cilazapril dem Futter beigemischt, dass die tägliche Cilazaprilaufnahme durchschnittlich 10 mg/kg betrug. Es handelt sich um eine Dosierung, die den systolischen Blutdruck um ca. 25% senkte. Die Kontrolltiere erhielten das gleiche Laborfutter ohne Zusatz. Die Ballonisierung der Arteria carotis communis wurde 6 Tage nach der ersten Gabe von Cilazapril durchgeführt. Die Tiere wurden mit Aetherinhalation und subcutaner Verabreichung von 200 mg/kg Hexobarbital-Na narkotisiert. Die distale linke Arteria carotis communis und das Bifurkationsgebiet von Carotis externa und interna wurden freigelegt. Der FOGARTY-Katheter (12-060-2F, Edwards Laboratories, Santa Anna, CA, USA) wurde durch die Arteria carotis externa in die Arteria carotis communis bis zum Aortenbogen eingeführt, der Ballon mit Wasser gefüllt (Füllungsvolumen ca. 0,01-0,015 ml) und gegen einen leichten Widerstand zurückgezogen. Dieses Procedere wurde zweimal wiederholt. Die Arteria carotis externa wurde ligiert und die Wunde vernäht. Die Operateure hatten keine Kenntnis, ob es sich um behandelte oder unbehandelte Tiere handelte.

The mark [3] stands for this setting: versus untreated control animals, about 10 mg/kg daily in feed, 14 days after ballooning.

Consider `CCOC(=O)[C@H](CCc1ccccc1)N[C@H]1CCCN2CCC[C@@H](C(=O)O)N2C1=O` [Cilazapril], for which, in assay [1] (calculated as circular ring from the neointima cross-sectional area, mean ± SD, n = 11, about 10 mg/kg daily in feed, 14 days after ballooning, controls 50 ± 25), the “Mittlere Dicke der Neointima” value is 8±7 µm. Moreover, the “Querschnittsfläche des Lumens” value in assay [1] (mean ± SD, n = 11, about 10 mg/kg daily in feed for 20 days, 14 days after ballooning, untreated controls 324 x 10^3) was 468 x 10^3±114 x 10^3 µm^2. The “Prozentsatz von mit Neointima bedeckter Lamina elastica interna” value in assay [1] (mean ± SD, n = 11, about 10 mg/kg daily in feed, 14 days after ballooning, controls 93 ± 15) was determined as 35±29%. Further, the “Querschnittsfläche der Neointima” value in assay [1] (mean ± SD, n = 11, cilazapril about 10 mg/kg daily in feed for 20 days, ballooning on day 6, left carotid fixed 14 days after ballooning, untreated controls 109 x 10^3) is recorded as 20 x 10^3±18 x 10^3 µm^2. Moreover, the “Verhältnis von Querschnittsfläche der Neointima zu Querschnittsfläche der Media” value in assay [1] (normalised neointima area, mean ± SD, n = 11, about 10 mg/kg daily in feed, 14 days after ballooning, controls 101 ± 43) is 23±21%. For the same molecule, in assay [1] (number of treated animals out of 11, about 10 mg/kg daily in feed, 14 days after ballooning), the “Tiere mit vollständig gehemmter Neointimabildung” value is recorded as 3 von 11. Moreover, in assay [1] (setting [3]), the “Hemmung (Querschnittsfläche der Neointima)” value is 82% and the “Hemmung (mittlere Dicke der Neointima)” value is given as 84%. The “Senkung des systolischen Blutdrucks” value in assay [2] is given as “ca. 25%”.
